Our source for the IC50 values is US20030069271A1, “Quinolone compounds for use in treating viral infections” (priority 1999, published 2003).

The first experiment has as its system HIV. As to the kind of experiment: Anti-HIV activity in MT4 cells (method of Averett, J. Virol. Methods 1989). It counts as cell-based. Particulars: Human immunodeficiency virus 1, read-out: Activity Range (IC50). The protocol: The compounds of the present invention were tested for anti-HIV activity in MT4 cells according to the method described by Averett, D. R., J. Virol.
Consider `CCCc1c(OC2CCCCC2)c2cc(Cl)ccc2[nH]c1=O` [Example 1, 6-Chloro-4-(cyclohexyloxy)-3-propyl-2(1H)-quinolinone], for which the IC50 fell in the range of 5 to 100 nM.
Still for that read-out and setting: under `CCCc1c(OCC2CC2)c2cc(Cl)ccc2[nH]c1=O` [Example 3, 6-Chloro-4-(cyclopropylmethoxy)-3-propyl-2(1H)-quinolinone] stands 100 to 500 nM; under `CCCc1c(OCC2CCCCC2)c2cc(Cl)ccc2[nH]c1=O` [Example 5, 6-Chloro-4(cyclohexylmethoxy)-3-propyl-2(1H)-quinolinone], 500 to 2000 nM.
Take `CCCc1c(OCC2OCCO2)c2cc(Cl)ccc2[nH]c1=O` [Example 6, 6-Chloro-4-(1,3-dioxolan-2-ylmethoxy)-3-propyl-2(1H)-quinolinone]: the IC50 is 500 to 2000 nM.
On to `CC(C)c1c(OC2CCCCC2)c2cc(Cl)ccc2[nH]c1=O` [Example 9, 6-Chloro-4-(cyclohexyloxy)-3-isopropyl-2(1H)-quinolinone], for which the IC50 lay within 5 to 100 nM.
`CCCc1c(OC2CCCC2)c2cc(C)ccc2[nH]c1=O` [Example 10, 4-Cyclopentyloxy-6-methyl-3-propyl-2(1H)-quinolinone]: the IC50 was in the range of 500 to 2000 nM.
On to `CCCc1c(OC2CCCCC2)c2cc(Cl)ccc2[nH]c1=S` [Example 20, 6-Chloro-4-(cyclohexyloxy)-3-propyl-2(1H)-quinolinethione], for which the IC50 is 5 to 100 nM.
Consider `CCCc1c([S+]([O-])C2CCCCC2)c2cc(Cl)ccc2[nH]c1=O` (centres unmarked) [Example 24, 6-Chloro-4-(cyclohexylsulfinyl)-3-propyl-2(1H)-quinolinone], for which the IC50 lay within 100 to 500 nM.
On the same count and under the same terms, under `CCCc1c(OC#CC2CC2)c2cc(Cl)ccc2[nH]c1=O` [Example 35, 6-Chloro-4-[(2-cyclopropylethynyl)oxy]-3-propyl-2(1H)-quinolinone] stands 5 to 100 nM; under `CC(C)c1c(OC#CC2CC2)c2cc(F)ccc2[nH]c1=O` [Example 36, 4-[(2-Cyclopropylethynyl)oxy]-6-fluoro-3-(isopropyl)-2(1H)-quinolinone], 5 to 100 nM.
On to `CCCc1c(OC#CC2CC2)c2cc(F)ccc2[nH]c1=O` [Example 37, 4-[(2-Cyclopropylethynyl)oxy]-6-fluoro-3-propyl-2(1H)-quinolinone], for which the IC50 lay in the range of 5 to 100 nM.
Consider `CCc1c(OC#CC2CC2)c2cc(F)ccc2[nH]c1=O` [Example 45, 4-[(2-Cyclopropylethynyl)oxy]-3-ethyl-6-fluoro-2(1H)-quinolinone], for which the IC50 is 5 to 100 nM.
The same measure, in the same setting: under `CC(C)c1c(OC#CC2CC2)c2cc(Cl)ccc2[nH]c1=O` [Example 46, 6-Chloro-4-[(2-Cyclopropylethynyl)oxy]-3-isopropyl-2(1H)-quinolinone] stands 5 to 100 nM.

Staying with this experiment, now noted: read-out: Activity Range (IC50).
As for `CC(C)Cc1c(OC#CC2CC2)c2cc(F)ccc2[nH]c1=O` [Example 47, 4-[(2-Cyclopropylethynyl)oxy]-6-fluoro-3-isobutyl-2(1,H)-quinolinone], the half-inhibitory concentration (IC50) was 5 to 100 nM.

Usually IC50 stands for the point on the concentration scale where inhibition reaches its midpoint.
